Test results as given in ChEMBL document CHEMBL3352057, “Novel fluorinated pyrrolo[1,2-a]pyrazine-2,6-dione derivatives: synthesis and anticonvulsant evaluation in animal models of epilepsy” (Bioorg Med Chem, 2014).
The source made the active and inactive calls. No cut-off for these calls is given here.

Assays:
Mus musculus [1] = experiment: Anticonvulsant activity in albino CF1 mouse assessed as protection against 32 mA current-induced seizures at 100 mg/kg, ip measured after 0.5 hr; type: functional, organism-based; design: dose 100 mg/kg
Mus musculus [2] = experiment: Neurotoxicity in 32 mA current-induced seizure albino CF1 mouse model at 100 mg/kg, ip measured after 0.5 hr; type: toxicity, organism-based; design: dose 100 mg/kg, route intraperitoneal; settings: in vivo
Mus musculus [3] = experiment: Anticonvulsant activity in albino CF1 mouse assessed as protection against maximal electroshock-induced seizures at 100 mg/kg, ip measured after 1 hr; type: functional, organism-based; design: dose 100 mg/kg
Mus musculus [4] = experiment: Neurotoxicity in 32 mA current-induced seizure albino CF1 mouse model at 100 mg/kg, ip measured after 4 hrs; type: toxicity, organism-based; design: dose 100 mg/kg, route intraperitoneal; settings: in vivo
Mus musculus [5] = experiment: Anticonvulsant activity in albino CF1 mouse assessed as protection against maximal electroshock-induced seizures at 100 mg/kg, ip measured after 0.25 hr; type: functional, organism-based; design: dose 100 mg/kg
Mus musculus [6] = experiment: Anticonvulsant activity in albino CF1 mouse assessed as protection against maximal electroshock-induced seizures at 100 mg/kg, ip measured after 0.5 hr; type: functional, organism-based; design: dose 100 mg/kg
Mus musculus [7] = experiment: Anticonvulsant activity in albino CF1 mouse assessed as protection against 32 mA current-induced seizures at 100 mg/kg, ip measured after 0.25 hr; type: functional, organism-based; design: dose 100 mg/kg
Mus musculus [8] = experiment: Anticonvulsant activity in albino CF1 mouse assessed as protection against maximal electroshock-induced seizures at 100 mg/kg, ip measured after 4 hrs; type: functional, organism-based; design: dose 100 mg/kg
Mus musculus [9] = experiment: Neurotoxicity in 32 mA current-induced seizure albino CF1 mouse model at 100 mg/kg, ip measured after 0.25 hr; type: toxicity, organism-based; design: dose 100 mg/kg, route intraperitoneal; settings: in vivo
Mus musculus [10] = experiment: Neurotoxicity in 32 mA current-induced seizure albino CF1 mouse model at 100 mg/kg, ip measured after 2 hrs; type: toxicity, organism-based; design: dose 100 mg/kg, route intraperitoneal; settings: in vivo
Mus musculus [11] = experiment: Neurotoxicity in albino CF1 mouse at 100 mg/kg, ip measured after 4 hrs; type: toxicity, organism-based; design: dose 100 mg/kg, route intraperitoneal; settings: in vivo
Mus musculus [12] = experiment: Neurotoxicity in albino CF1 mouse at 100 mg/kg, ip measured after 1 hr; type: toxicity, organism-based; design: dose 100 mg/kg, route intraperitoneal; settings: in vivo
Mus musculus [13] = experiment: Neurotoxicity in albino CF1 mouse at 100 mg/kg, ip measured after 0.25 hr; type: toxicity, organism-based; design: dose 100 mg/kg, route intraperitoneal; settings: in vivo
Mus musculus [14] = experiment: Anticonvulsant activity in albino CF1 mouse assessed as protection against 32 mA current-induced seizures at 100 mg/kg, ip measured after 2 hrs; type: functional, organism-based; design: dose 100 mg/kg
Mus musculus [15] = experiment: Anticonvulsant activity in albino CF1 mouse assessed as protection against 32 mA current-induced seizures at 100 mg/kg, ip measured after 1 hr; type: functional, organism-based; design: dose 100 mg/kg
Mus musculus [16] = experiment: Anticonvulsant activity in albino CF1 mouse assessed as protection against 32 mA current-induced seizures at 100 mg/kg, ip measured after 4 hrs; type: functional, organism-based; design: dose 100 mg/kg
Mus musculus [17] = experiment: Neurotoxicity in 32 mA current-induced seizure albino CF1 mouse model at 100 mg/kg, ip measured after 1 hr; type: toxicity, organism-based; design: dose 100 mg/kg, route intraperitoneal; settings: in vivo
Mus musculus [18] = experiment: Neurotoxicity in albino CF1 mouse at 100 mg/kg, ip measured after 0.5 hr; type: toxicity, organism-based; design: dose 100 mg/kg, route intraperitoneal; settings: in vivo
Mus musculus [19] = experiment: Anticonvulsant activity in albino CF1 mouse assessed as protection against subcutaneous metrazol-induced seizures at 100 mg/kg, ip measured after 0.5 hr; type: functional, organism-based; design: dose 100 mg/kg
Mus musculus [20] = experiment: Anticonvulsant activity in albino CF1 mouse assessed as protection against subcutaneous metrazol-induced seizures at 100 mg/kg, ip measured after 4 hrs; type: functional, organism-based; design: dose 100 mg/kg
Mus musculus [21] = experiment: Anticonvulsant activity in albino CF1 mouse assessed as protection against subcutaneous metrazol-induced seizures at 100 mg/kg, ip measured after 0.25 hr; type: functional, organism-based; design: dose 100 mg/kg
Mus musculus [22] = experiment: Anticonvulsant activity in albino CF1 mouse assessed as protection against subcutaneous metrazol-induced seizures at 100 mg/kg, ip measured after 1 hr; type: functional, organism-based; design: dose 100 mg/kg
Rattus norvegicus [23] = experiment: Neurotoxicity in MES Sprague-Dawley rat model at 30 mg/kg, ip measured after 2 hrs; type: toxicity, organism-based; design: dose 30 mg/kg, route intraperitoneal; settings: in vivo
Rattus norvegicus [24] = experiment: Neurotoxicity in MES Sprague-Dawley rat model at 30 mg/kg, ip measured after 0.5 hr; type: toxicity, organism-based; design: dose 30 mg/kg, route intraperitoneal; settings: in vivo
Rattus norvegicus [25] = experiment: Anticonvulsant activity in Sprague-Dawley rat assessed as protection against maximal electroshock-induced seizures at 30 mg/kg, ip measured after 1 hr; type: functional, organism-based; design: dose 30 mg/kg
Rattus norvegicus [26] = experiment: Anticonvulsant activity in Sprague-Dawley rat assessed as protection against maximal electroshock-induced seizures at 30 mg/kg, ip measured after 0.25 hr; type: functional, organism-based; design: dose 30 mg/kg
Rattus norvegicus [27] = experiment: Neurotoxicity in MES Sprague-Dawley rat model at 30 mg/kg, ip measured after 4 hrs; type: toxicity, organism-based; design: dose 30 mg/kg, route intraperitoneal; settings: in vivo
Rattus norvegicus [28] = experiment: Anticonvulsant activity in Sprague-Dawley rat assessed as protection against maximal electroshock-induced seizures at 30 mg/kg, ip measured after 0.5 hr; type: functional, organism-based; design: dose 30 mg/kg
Rattus norvegicus [29] = experiment: Anticonvulsant activity in Sprague-Dawley rat assessed as protection against maximal electroshock-induced seizures at 30 mg/kg, ip measured after 4 hrs; type: functional, organism-based; design: dose 30 mg/kg
Rattus norvegicus [30] = experiment: Anticonvulsant activity in Sprague-Dawley rat assessed as protection against maximal electroshock-induced seizures at 30 mg/kg, ip measured after 2 hrs; type: functional, organism-based; design: dose 30 mg/kg
Rattus norvegicus [31] = experiment: Neurotoxicity in MES Sprague-Dawley rat model at 30 mg/kg, ip measured after 1 hr; type: toxicity, organism-based; design: dose 30 mg/kg, route intraperitoneal; settings: in vivo
Rattus norvegicus [32] = experiment: Neurotoxicity in MES Sprague-Dawley rat model at 30 mg/kg, ip measured after 0.25 hr; type: toxicity, organism-based; design: dose 30 mg/kg, route intraperitoneal; settings: in vivo

Row | Structure (SMILES) | Activity (Mus musculus [1]) | Activity (Mus musculus [2]) | Activity (Mus musculus [3]) | Activity (Mus musculus [4]) | Activity (Mus musculus [5]) | Activity (Mus musculus [6]) | Activity (Mus musculus [7]) | Activity (Mus musculus [8]) | Activity (Mus musculus [9]) | Activity (Mus musculus [10]) | Activity (Mus musculus [11]) | Activity (Mus musculus [12]) | Activity (Mus musculus [13]) | Activity (Mus musculus [14]) | Activity (Mus musculus [15]) | Activity (Mus musculus [16]) | Activity (Mus musculus [17]) | Activity (Mus musculus [18]) | Activity (Mus musculus [21]) | Activity (Mus musculus [22]) | further results
1 | Cl.O=C1NC(=O)[C@@H](c2cccc(C(F)(F)F)c2)N2CCC[C@H]12 | Active | Non-toxic | inactive | Non-toxic | Active | inactive | Active | inactive | Non-toxic | Non-toxic | Non-toxic | Non-toxic | Non-toxic | inactive | Active | inactive | Non-toxic | Non-toxic |  |  | 
2 | O=C1NC(=O)[C@@H]2CCCN2[C@H]1c1c(F)cccc1Cl (mixture of isomers) | inactive | Non-toxic | inactive | Non-toxic | inactive | inactive | inactive | inactive | Non-toxic | Non-toxic | Non-toxic | Non-toxic | Non-toxic | inactive | inactive | inactive | Non-toxic | Non-toxic | inactive | inactive | Activity (Mus musculus [19]): inactive; Activity (Mus musculus [20]): inactive
3 | O=C1NC(=O)[C@@H](c2cccc(C(F)(F)F)c2)N2CCCC[C@@H]12 |  |  | inactive |  | inactive |  | inactive |  | Non-toxic |  |  | Non-toxic | Non-toxic |  | inactive |  | Non-toxic |  |  |  | 
4 | O=C1NC(=O)[C@H](c2cccc(C(F)(F)F)c2)N2CCCC[C@H]12 |  |  | inactive |  | inactive |  | inactive |  | Non-toxic |  |  | Non-toxic | Non-toxic |  | inactive |  | Non-toxic |  | inactive | inactive | 
5 | O=C1NC(=O)[C@@H]2CCCN2[C@H]1c1c(F)cccc1F (mixture of isomers) | inactive | Non-toxic | inactive | Non-toxic | Active | inactive | Active | inactive | Non-toxic | Non-toxic | Non-toxic | Non-toxic | Non-toxic | inactive | inactive | inactive | Non-toxic | Non-toxic | inactive | inactive | Activity (Mus musculus [19]): inactive; Activity (Mus musculus [20]): inactive
6 | O=C1NC(=O)[C@@H]2CCCCN2[C@H]1c1cccc(C(F)(F)F)c1 | Active | Non-toxic | inactive | Non-toxic | inactive | inactive | Active | inactive | Non-toxic | Non-toxic | Non-toxic | Non-toxic | Non-toxic | inactive | inactive | inactive | Non-toxic | Non-toxic | inactive | inactive | Activity (Mus musculus [19]): inactive; Activity (Mus musculus [20]): inactive; Activity (Rattus norvegicus [23]): Non-toxic; Activity (Rattus norvegicus [24]): Non-toxic; Activity (Rattus norvegicus [25]): inactive; Activity (Rattus norvegicus [26]): inactive; Activity (Rattus norvegicus [27]): Non-toxic; Activity (Rattus norvegicus [28]): inactive; Activity (Rattus norvegicus [29]): inactive; Activity (Rattus norvegicus [30]): inactive; Activity (Rattus norvegicus [31]): Non-toxic; Activity (Rattus norvegicus [32]): Non-toxic
7 | O=C1NC(=O)[C@H](c2cccc(C(F)(F)F)c2)N2CCC[C@H]12 | inactive | Non-toxic | inactive | Non-toxic | inactive | inactive | inactive | inactive | Non-toxic | Non-toxic | Non-toxic | Non-toxic | Non-toxic | inactive | inactive | inactive | Non-toxic | Non-toxic | inactive | inactive | Activity (Mus musculus [19]): inactive; Activity (Mus musculus [20]): inactive
8 | O=C1NC(=O)[C@@H]2CCCN2[C@H]1c1cc(F)cc(F)c1 | Active | Non-toxic | inactive | Non-toxic | Active | inactive | Active | inactive | Non-toxic | Non-toxic | Non-toxic | Non-toxic | Non-toxic | inactive | inactive | inactive | Non-toxic | Non-toxic | Active | inactive | Activity (Mus musculus [19]): Active; Activity (Mus musculus [20]): inactive
9 | O=C1NC(=O)[C@@H]2CCCN2[C@H]1c1ccccc1C(F)(F)F | inactive | Non-toxic | inactive | Non-toxic | inactive | inactive | inactive | inactive | Non-toxic | Non-toxic | Non-toxic | Non-toxic | Non-toxic | inactive | inactive | inactive | Non-toxic | Non-toxic | inactive | inactive | Activity (Mus musculus [19]): inactive; Activity (Mus musculus [20]): inactive
